Laboratory results taken from patent US9138408B2, “Use of taurine for treating alopecia” (L'OREAL, priority 2002, dated 2015).
Entries after “also recorded” stand apart in the source; their conditions may differ.

System: normal human dermal fibroblasts (NHDF pool PF2)
Assay: Incorporation of thymidine, proline and leucine in macromolecules neosynthesized by fibroblasts in culture
Type: cell-based
Details: for Leucine incorporation / Proline incorporation / Thymidine incorporation: NHDF in vitro culture
Description: A study was performed with the aim of evaluating, via a screening method, the effects of the compounds on the growth of fibroblasts and the synthesis of the major constituents of the extracellular matrix. The technique made it possible to study and evaluate the advantage of taurine on this cell metabolism (T. Shigematsu et al. Biochimica et Biophysica Acta 1200 (1994) 79-83).
A pool of normal human dermal fibroblasts (NHDF pool PF2, used at the eighth passage) was cultured under standard conditions in a medium: DMEM, 2 mM L-glutamine, 50 IU/ml/50 […] penicillin/streptomycin, 0.5% fetal calf serum.
Taurine was tested at concentrations of 10 mM and 1 mM in a sterile culture medium, against an untreated control blank.
The figures in bold are those for which there is a significant variation (stat. sign. meaning statistical significance: p<0.005). The results are expressed as a percentage of the control.

[1] = at the two concentrations (1 mM, 10 mM), fibroblasts

NCCS(=O)(=O)O [taurine, Taurine]
Leucine incorporation (1 mM taurine): 100 % control | Proline incorporation (1 mM taurine): 88 % control | Thymidine incorporation (1 mM taurine): 89 % control | Leucine incorporation (10 mM taurine): 105 % control | Proline incorporation (10 mM taurine): 87 % control | Thymidine incorporation (10 mM taurine): 90 % control | incorporation of leucine (representative of noncollagen protein synthesis), in words [1]: did not significantly modify; also recorded: without impairing that of leucine | incorporation of proline by the fibroblasts, in words [1]: did significantly inhibit; also recorded: reduces the incorporation of proline | incorporation of thymidine (representative of cell proliferation), in words [1]: did not significantly modify
